In US12569482B2, “Methods and compositions for treating idiopathic pulmonary fibrosis” (priority 2018, dated 2026):
“Also recorded” adds a separate entry of the source. Like-named read-outs stand apart in the source and are kept apart here.

How the values were obtained:
[1] = set-up: species or system C57BL/6 mice; settings: C57BL/6, mouse, in vivo, 2 h
Experimental: (§1) On Day 5, the mice with bleomycin treatment were divided into three groups at random (referred to as Group 2-4, n=10), and orally administered with vehicle (0.5% Methyl cellulose), nintedanib (Kangmanlin Co. Ltd., prepared in 0.5% Methyl cellulose with a final concentration of 6.0 mg/mL) and fluconazole (Kangmanlin Co. Ltd., prepared in 0.5% Methyl cellulose with a final concentration of 7.0 mg/mL) at daily doses of 10 mL/kg, 60 mg/kg and 70 mg/kg, respectively. The mice in the Control group was administered with vehicle (0.5% Methyl cellulose) at a daily dose of 10 mL/kg. Mice body weights were measured and recorded on Day 1, 5, 12, 19 and 25.
Two hours post drug administration on Day 25, all animals were anaesthetized with pentobarbital (i.p., 65 mg/kg). Blood samples were collected from orbital vein, put in tubes pre-coated with EDTA-K2 (KANG JIAN, Cat #KJ202), centrifuged at 4000×g for 10 minutes at 4° C. and then stored at −80° C. for determination of plasma drug levels. Then, the trachea was exposed, and bronchoalveolar lavage fluid (BALF) was collected from each mouse by injecting 0.3 mL of saline into trachea close to the larynx for three times. After BALF collection, mice were perfused with saline, and all four lung lobes were collected from each mouse, fixed in 10% NBF solution, embedded in paraffin and cut into 5 μm-thick sections. […]

[2] = system: bleomycin-induced lung fibrosis; assay: Bleomycin induced IPF mouse model, Example 1 (oral nintedanib or fluconazole); assay type: in vivo, C57BL/6 mice; settings: nintedanib 60 mg/kg
Experimental: Forty male C57BL/6 mice (Nanjing Biomedical Research Institute of Nanjing University) were randomly divided into two groups on Day 1, 10 animals for one group (referred to as Control group or Group 1) and 30 for the other. The animals in the Control group were administered intratracheally with PBS at a dose of 2 mL/kg while the others were administered intratracheally with bleomycin (Cat #HY-17565, MCE) at a dose of 0.66 mg/kg.
as §1
Two hours post drug administration on Day 25, all animals were anaesthetized with pentobarbital (i.p., 65 mg/kg). Blood samples were collected from orbital vein, put in tubes pre-coated with EDTA-K2 (KANG JIAN, Cat #KJ202), centrifuged at 4000×g for 10 minutes at 4° C. and then stored at −80° C. for determination of plasma drug levels. Then, the trachea was exposed, and bronchoalveolar lavage fluid (BALF) was collected from each mouse by injecting 0.3 mL of saline into trachea close to the larynx for three times. After BALF collection, mice were perfused with saline, and all four lung lobes were collected from each mouse, fixed in 10% NBF solution, embedded in paraffin and cut into 5 μm-thick sections. The sections were de-paraffinized with xylene and ethanol and subject to Haematoxylin-Eosin, Masson Trichrome and α-SMA IHC staining.
The bronchoalveolar lavage fluid of 20 μL was mixed with 20 μL of trypan blue to determine the cell number. Then, the cells in the BALF were concentrated using a Cytospinat at 1,000 rpm for 5 minutes, smeared on slides and then stained with Diff-Quik stain. Cell types (alveolar macrophages, neutrophils, or lymphocytes) were determined by counting at least 200 cells using a standard hemocytometer. The rest BALFs were centrifuged and supernatants were collected and stored at −80° C. for soluble collagen analysis.
The Haematoxylin-Eosin staining was used to identify and quantitate the inflammatory cells in the tissues, and the total inflammation area was calculated using the AperioScanScope software.
The sections with Masson Trichrome staining were scored for pulmonary fibrosis according to the modified Ashcroft fibrosis rating criteria in Table 1 below. Each lung lobe was divided into 4 parts according to the distance from the main bronchus, i.e., the upper, upper middle, lower middle and lower parts, which were scored separately and averaged later.
α-SMA is a well characterized marker in fibrosis. Immunohistochemistry staining of α-SMA is often used to characterize and quantitate the tissue fibrosis. Increased staining of α-SMA often reflects accumulation of collagen-producing myofibroblasts. Before α-SMA IHC staining, the de-paraffinized sections were treated with citrate antigen retrieval solution (0.01 N citrate buffer, pH 6.0) at 100° C. for 10 minutes, and then incubated with rabbit polyclonal anti-α-SMA (1:400, ab5694, Abcam) for 1 hour followed by goat anti-rabbit HRP (K4003, Dako). DAB substrate kit (DAB0031, Maixin, Shanghai) was used for chromogenic staining. All sections were further counter-stained with hematoxylin. […] α-SMA staining areas were calculated using the AperioImageScope program.
Statistical analysis was performed using student's T-test, one-way or two-way ANOVA followed by post-hoc Dunnett's test if significant. […] The difference was considered significant when p<0.05. *p<0.05, **p<0.01, ***[…].

[3] = mice, cited from earlier work
[4] = cited from earlier work
[5] = Drug concentrations in plasma and lung tissues after 5 days of oral or inhalation dosing; assay type: in vivo, healthy male mice; settings: male, mouse; for Kp at 2 h: lung tissue and plasma, read-out: levels in lung tissues relative to plasma; for concentration at 2 h: q.d., 5 days, two hours after last dose
Experimental: In a separate experiment, three groups of healthy male mice were treated with itraconazole for 5 consecutive days. Animals in Group A were orally administered with itraconazole in DMSO:PEG400 (1:9, v/v) at a daily dose of 15 mg/kg, while mice in Group B and C were subject to 3-min inhalation treatment of itraconazole of 15 mg/mL and 50 mg/mL, respectively. Two hours after the last dose, plasma samples and lung tissues were collected as described above. These samples were sent to an independent bioanalytical service lab to determine the levels of itraconazole, and results were summarized in Table 3.

[6] = Plasma drug levels, Example 2; assay type: in vivo, C57BL/6 mice; settings: C57BL/6, mouse
Experimental: On Day 5, the mice with bleomycin treatment were divided into four groups at random (referred to as Group 2-5, n=10), and orally administered with vehicle (DMSO: PEG400=1:9, V/V), itraconazole (Kangmanlin Co. Ltd. prepared in DMSO/PEG400 with a final concentration of 1.5 mg/mL), nintedanib (Kangmanlin Co. Ltd., prepared in DMSO/PEG400 with a final concentration of 6.0 mg/mL), and itraconazole+nintedanib (prepared in DMSO/PEG400 with final concentrations of 1.5 mg/mL and 6.0 mg/mL) at daily doses of 10 mL/kg, 15 mg/kg, 60 mg/kg and 15+60 mg/kg, respectively. The mice in the Control group was administered with vehicle (DMSO/PEG400) at a daily dose of 10 mL/kg. Mice body weights were measured and recorded on Day 1, 5, 12, 19 and 21.
Two hours post drug administration on Day 21, all animals were anaesthetized with pentobarbital (i.p., 60 mg/kg). Blood sample, bronchoalveolar lavage fluid (BALF) and lung lobes were collected from each mouse and then processed following the protocols in Example 1.

[7] = Plasma exposure levels in the bleomycin-induced lung fibrosis mouse study; assay type: in vivo
Description: Because the relevancy to human efficacy in bleomycin-induced lung fibrosis mouse model, though well established in preclinical studies (Moeller, 2008), has not been established, a new version of the bleomycin-induced lung fibrosis mouse study protocol was designed, with marketed anti-fibrotic drugs, namely pirfenidone and nintedanib, as positive controls.

[8] = cited from earlier work; remark: listed apart in the source
[9] = system: sol elastase activity of CF sputum; settings: unprocessed CF sputum directly treated; cited from earlier work

In the case of `OC(Cn1cncn1)(Cn1cncn1)c1ccc(F)cc1F` [fluconazole], the “plasma level relative to that of itraconazole at 15 mg/kg” value [1] is reported as “over 62 fold”, the “reduction of lung inflammation area” value ([2]; Haematoxylin-Eosin staining, fluconazole 70 mg/kg p.o. daily) is reported as “not observed” and the “reduction of modified Ashcroft score” value ([2]; Masson Trichrome staining, fluconazole 70 mg/kg p.o. daily) is reported as “not observed”. The “anti-IPF activities / fibrosis related endpoint measurements (overall)” value ([2]; fluconazole 70 mg/kg daily dose) was “did not show detectable changes; also recorded: failed to show any significant anti-IPF activities”, the BALF collagen levels ([2]; oral daily Day 5-25, fluconazole 70 mg/kg, vs bleomycin + vehicle) was “No collagen level reduction” and the “reduction of α-SMA staining area” value ([2]; α-SMA IHC, fluconazole 70 mg/kg p.o. daily) was “not observed”.

For `CCC(C)n1ncn(-c2ccc(N3CCN(c4ccc(OCC5COC(Cn6cncn6)(c6ccc(Cl)cc6Cl)O5)cc4)CC3)cc2)c1=O` (centres unmarked) [itraconazole], the “serum levels relative to pulmonary concentrations” value ([3]; aerosolized dose) is given as 25 to 50 times lower, the “time to effective anti-fungal pulmonary concentrations” value ([3]; after completion of nebulization) is given as at most 60 min and the “Cmax at steady state” value ([4]; 200 mg (PO/BID)) is given as 2000 ng/mL. The “Cmax at steady state” value ([4]; 200 mg (PO/QD)) was 1100 ng/mL, the “time to steady state plasma levels” value ([4]; post oral administration, multiple dosing) was “around 15 days” and the “time at which peak plasma levels are reached” value ([4]; post oral dose) was 2 to 5 h. For the same molecule, the Kp at 2 h ([5]; inhaled, 5 days of inhalation at 15 mg/mL for 3 min) was about 7.3, the Kp at 2 h ([5]; inhaled, inhalation dose of 50 mg/mL for 3 min) was 8.3 and the Kp at 2 h ([5]; 5 days of oral dosing at 15 mg/kg) was about 1.3. For the same molecule, the concentration at 2 h ([5]; lung tissue, inhaled, Group B: i.h., 15 mg/mL for 3 min, read-out: Lung Tissue Concentrations) was 590 ng/mL, the concentration at 2 h ([5]; lung tissue, inhaled, Group C: i.h., 50 mg/mL for 3 min, read-out: Lung Tissue Concentrations) was 1400 ng/mL and the concentration at 2 h ([5]; lung tissue, po, Group A: p.o., 15 mg/kg, read-out: Lung Tissue Concentrations) was 172 ng/mL. For the same molecule, the concentration at 2 h ([5]; plasma, inhaled, Group B: i.h., 15 mg/mL for 3 min, read-out: Plasma Concentrations) was 80.9 ng/mL, the concentration at 2 h ([5]; plasma, inhaled, Group C: i.h., 50 mg/mL for 3 min, read-out: Plasma Concentrations) was 168 ng/mL and the concentration at 2 h ([5]; plasma, po, Group A: p.o., 15 mg/kg, read-out: Plasma Concentrations) was 133 ng/mL. It also gave a concentration at 2 h ([6]; oral, Day 21, itraconazole 15 mg/kg, nintedanib 60 mg/kg p.o. daily, read-out: two-hour post dosing plasma level, single agent) of 700 ng/mL, a concentration at 2 h ([6]; po, Day 21, 15+60 mg/kg p.o. daily, read-out: two-hour post dosing plasma drug level, itraconazole and nintedanib combined in administration) of 518 ng/mL and a plasma exposure level ([7]; itraconazole alone at 7.5 mg/kg) of 394 ± 66 ng/mL. The plasma exposure level ([7]; itraconazole alone at 15 mg/kg) was 899 ± 192 ng/mL, the solubility ([8]; in 0.1N HCl) was 4 to 6 µg/mL and the solubility ([8]; in water) was 0.001 to 0.004 µg/mL.

In the case of DNase, the “increase of sol elastase activity” value [9] is listed as 190%.

B1: reduced rhTrx: stable reduced form of recombinant human thioredoxin (protein, UniProt P10599 2-105, looked up)
Thioredoxin: VKQIESKTAFQEALDAAGDKLVVVDFSATWCGPCKMIKPFFHSLSEKYSNVIFLEVDVDDCQDVASECEVKCMPTFQFFKKGQKVGEFSGANKEKLEATINELV
modifications: reduced form
In the case of B1, the “increase of sol elastase activity” value [9] is listed as 60%.
